Assay [1] deals with Wnt activity (Sp5-Luc reporter, SW480 colon carcinoma cells). In words: Sp5-Luc reporter gene screening assay for Wnt activity in SW480 cells. The settings on record: Homo sapiens; for pEC50: Sp5-Luc reporter, SW480 cells, 36 to 48 hours. The class given is cell-based. The text has this: The screening assay for Wnt activity is described as follows. Reporter cell lines can be generated by stably transducing cancer cell lines (e.g., colon cancer) or primary cells (e.g., IEC-6 intestinal cells) with a lentiviral construct that includes a Wnt-responsive promoter driving expression of the firefly luciferase gene.
SW480 colon carcinoma cells were transduced with a lentiviral vector expressing luciferase with a human Sp5 promoter consisting of a sequence of eight TCF/LEF binding sites. SW480 cells stably expressing the Sp5-Luc reporter gene and a hygromycin resistance gene were selected by treatment with 150 μg/mL of hygromycin for 7 days. These stably transduced SW480 cells were expanded in cell culture and used for all further screening activities. […] For Sp5-Luc reporter gene assays, the cells were plated at 4,000 cells/well in 384-well plates with a DMEM medium containing 1% fetal bovine serum, and 1% Penicillin-Streptomycin and incubated for 36 to 48 hours at 37° C. and 5% CO2. Following incubation, 15 μl of BriteLite Plus luminescence reagent (Perkin Elmer) was added to each well of the 384-well assay plates. The plates were placed on an orbital shaker for 2 min and then luminescence was quantified using the Envision (Perkin Elmer) plate reader. Readings were normalized to DMSO only treated cells, and normalized activities were utilized for EC50 calculations using the dose-response log (inhibitor) vs. response-variable slope (four parameters) nonlinear regression feature available in GraphPad Prism 5.0 (or Dotmatics).
In general terms: A reporter such as luciferase makes a cellular process visible.

For assay [2], the target named is recombinant DYRK1A kinase (Homo sapiens (Human), UniProt Q13627). In words: DYRK1A kinase assay (Ser/Thr 18 peptide Z-lyte, FRET). The class given is biochemical. The settings on record: 30 μM ATP, one hour at room temperature, read-out: EC50 (μM) (IC50 per method). The text has this: Representative compounds were screened using the assay procedure for DYRK1A kinase activity as described below.
The DYRK1A kinase assay was run using the Ser/Thr 18 peptide Z-lyte assay kit according to manufacturer's instructions (Life Technologies—a Division of Thermo-Fisher). This is a non-radioactive assay using fluorescence resonance energy transfer (FRET) between coumarin and fluorescein to detect kinase activity which is represented as a ratio of coumarin emission/fluorescein emission.
Briefly, recombinant DYRK1A kinase, ATP and Ser/Thr peptide 18 were prepared in 1× Kinase buffer to final concentrations of 0.19 μg/mL, 30 μM, and 4 μM respectively. The mixture was allowed to incubate with the representative compounds for one hour at room temperature. All reactions were performed in duplicate. Unphosphorylated (“0% Control”) and phosphorylated (“100% control”) forms of Ser/Thr 18 served as control reactions. Additionally, an 11-point dose-response curve of Staurosporine (1 uM top) was run to serve as a positive compound control.
After incubation, Development Reagent A was diluted in Development Buffer then added to the reaction and allowed to further incubate for one hour at room temperature. The plate was read at Ex 400 Em 455 to detect the coumarin signal and Ex 400 Em 520 to measure the signal (EnVision Multilabel Plate Reader, PerkinElmer).
The Emission ratio (Em) was calculated as a ratio of the coumarin (C) emission signal (at 445 nm)/Fluorescein (F) emission signal (at 520 nm). The percent phosphorylation was then calculated using the following formula: [1−((Em ratio×F100%)−C100%)/((C0%−C100%)+(Em ratio×(F100%−F0%)))].

Assay [3] deals with primary human mesenchymal stem cells (hMSCs). In words: Chondrogenesis induction in hMSCs (Rhodamine B staining intensity, EC50). As to conditions: 6 days, Rhodamine B staining intensity of nodules. In kind it is cell-based. An excerpt:
(§1) Representative compounds were screened using primary human mesenchymal stem cells (hMSCs) to determine their ability to induce chondrogenesis (process by which cartilage is developed).
Primary human mesenchymal stem cells (hMSCs) were purchased from Lonza (Walkersville, Md.) and expanded in Mesenchymal Stem Cell Growth Media (Lonza). Cells between passage 2 and 4 were used for the experiments.
To image chondrogenic nodules, the cells were fixed using 4% formaldehyde (Electron Microscopy Sciences), and stained with 2 μg/mL Rhodamine B (Sigma-Aldrich) and 20 μM Nile Red (Sigma-Aldrich) [Johnson K., et. al, A Stem Cell-Based Approach to Cartilage Repair, Science, (2012), 336(6082). […] Rhodamine B staining intensity of nodules in each well was normalized to the average of 3 DMSO treated wells on the same plate using Excel (Microsoft Inc.). The normalized averages (fold change over DMSO) of 3 replicate wells for each compound concentration were calculated. EC50 values were calculated using non-linear regression curve fitting in Prism 8 (Graphpad Inc.). Due to solubility limitations of some of the compounds, curve fitting was incomplete, and the highest observed activity was extrapolated to the insoluble doses for accurate EC50 determinations.
EC50 values are reported. Further, using TGF-β3 as a positive control, the concentration of representative compounds required to induce equivalent levels of chondrogenesis is reported. In addition, the maximum activity of each compound and the respective dose that each compound reached maximum chondrogenesis activity is reported.

For assay [4] the test system is unchanged. Nature of the assay: Chondrogenesis induction in hMSCs (nodule count, relative to TGF-β3). As to conditions: 6 days; for Conc (nM) of 50% TGF-β3 activity / Max. Activity as % TGF-β3 activity: TGF-β3 10 ng/mL positive control; for Conc (nM) of Max. activity: chondrogenic nodules. The class given is cell-based.
Excerpt: as §1
Human Mesenchymal Stem Cell Culture: Primary human mesenchymal stem cells (hMSCs) were purchased from Lonza (Walkersville, Md.) and expanded in Mesenchymal Stem Cell Growth Media (Lonza). Cells between passage 3 and 6 were used for the experiments.
Number of nodules in each well was normalized to the average of 3 DMSO treated wells on the same plate using Excel (Microsoft Inc.). The normalized averages (fold change over DMSO) of 3 replicate wells for each compound concentration were calculated. Due to solubility limitations of some of the compounds, curve fitting was incomplete leading to inaccurate EC50 determinations.
Using TGF-β3 as a positive control, the concentration of representative compounds required to induce equivalent levels of chondrogenesis is reported. In addition, the maximum activity of each compound and the respective dose that each compound reached maximum chondrogenesis activity is reported.

pEC50: −log10 of the molar value.

As a reminder, the pEC50 is −log10 of the EC50, conventionally taken in molar units. A high value points to a small EC50. By IC50 is commonly meant the concentration at which inhibition is half-maximal. What is called inhibition is how much of the control response was suppressed.

`O=C1CCc2cccc(c2)-c2cccc3[nH]c(nc23)-c2n[nH]c3ccc(nc23)-c2cncc(c2)N1` [Compound 7, (Z)-2^1H,3^1H-8-Aza-2(5,3)-pyrazolo[4,3-b]pyridina-3 (2,4)-benzo[d]imidazola-1(3,5)-pyridina-4(1,3)-benzenacyclooctaphan-7-one]: the pEC50 in assay [1] is 6.36; in assay [3], 7.66. The IC50 in assay [2] was greater than 10 µM.
The like results for `O=C1CCc2cccc(c2)-c2cccc3[nH]c(nc23)-c2n[nH]c3cnc(cc23)-c2cncc(c2)N1` [Compound 6, (Z)-2^1H,3^1H-8-Aza-2(5,3)-pyrazolo[3,4-c]pyridina-3(2,4)-benzo[d]imidazola-1(3,5)-pyridina-4(1,3)-benzenacyclooctaphan-7-one] were, in that order, 8.05, 7.80 and 0.096 µM.
Turning to `Cn1ncc2c1CNCc1cccc(c1)-c1cccc3[nH]c(nc13)-c1n[nH]c3ccc-2cc13` [Compound 15, (Z)-Methyl-1^1H,2^1H,3^1H-6-aza-2(5,3),3 (2,4)-diindazola-1 (4,5)-pyrazola-4(1,3)-benzenacycloheptaphane], the pEC50 in assay [1] is 7.23; in assay [3], 7.29. The half-maximal inhibitory concentration (IC50) in assay [2] came to 0.111 µM.
The like results for `O=C1CCc2cccc(c2)-c2nccc3[nH]c(nc23)-c2n[nH]c3ccc(cc23)-c2cncc(c2)N1` [Compound 2, (Z)-2^1H,3^1H-5-Aza-2(4,2)-imidazo[4,5-c]pyridina-3 (3,5)-indazola-4(3,5)-pyridina-1(1,3)-benzenacyclooctaphan-6-one] were, in that order, 7.66, 7.24 and 0.006 µM.
`CN1Cc2cccc(c2)-c2cccc3[nH]c(nc23)-c2n[nH]c3ccc(cc23)-c2cnn(C)c2C1` [Compound 29]: the figures for the negative logarithm of the EC50 (pEC50) in assay [1] and in assay [3] were 7.09 and 7.16, respectively. Further, in assay [2], the IC50 turned out to be 0.412 µM.
In assay [1], `O=C1CCc2cccc(c2)-c2cccc3[nH]c(nc23)-c2n[nH]c3ccc(cc23)-c2cncc(c2)N1` [Compound 1] gave a pEC50 of 7.66. The IC50 in assay [2] stood at 0.266 µM. Besides, in assay [4], the “Conc (nM) of 50% TGF-β3 activity” value was determined as 200 nM, the “Max. Activity as % TGF-β3 activity” value is reported as 497% and the “Conc (nM) of Max. activity” value came to 5000 nM. Moreover, in assay [3], the pEC50 is 7.92.
Take `c1cc2cc(c1)-c1cccc3[nH]c(nc13)-c1n[nH]c3ccc(cc13)-c1cncc(c1)OCCC2` [Compound 57]: the values for the pEC50 in assay [1] and in assay [3] were 6.32 and 7.60, respectively. The IC50 in assay [2] was greater than 10 µM.
`c1cc2cc(c1)-c1cccc3[nH]c(nc13)-c1n[nH]c3ccc(cc13)-c1cncc(c1)CNC2` [Compound 10, (Z)-2^1H,3^1H-6-Aza-2(5,3),3(2,4)-diindazola-1(3,5)-pyridina-4(1,3)-benzenacycloheptaphane] had a pEC50 in assay [1] of 7.96. The concentration for half-maximal inhibition (IC50) in assay [2] stood at 0.018 µM. For the same compound, in assay [4], the “Conc (nM) of 50% TGF-β3 activity” value was found to be 50 nM, the “Max. Activity as % TGF-β3 activity” value is on record as 607% and the “Conc (nM) of Max. activity” value came out at 600 nM. In assay [3], this compound had a pEC50 of 8.00.
With `O=C1CCc2cccc(c2)-c2cccc3[nH]c(nc23)-c2n[nH]c3ncc(cc23)-c2cncc(c2)N1` [Compound 5, (Z)-2^1H,3^1H-8-Aza-2(5,3)-pyrazolo[3,4-b]pyridina-3(2,4)-benzo[d]imidazola-1(3,5)-pyridina-4(1,3)-benzenacyclooctaphan-7-one], the negative-log EC50 (pEC50) in assay [1] was 6.91; in assay [3] it was 6.67. Also, the IC50 in assay [2] worked out at 0.709 µM.
Consider `O=C1COc2cccc(c2)-c2cncc3[nH]c(nc23)-c2n[nH]c3ccc(cc23)-c2cncc(c2)N1` [Compound 38, (Z)-2^3H,3^1H-8-Oxa-5-aza-2(7,2)-imidazo[4,5-c]pyridina-3(3,5)-indazola-4(3,5)-pyridina-1(1,3)-benzenacyclooctaphan-6-one], for which, in assay [1], the pEC50 is 7.06. In assay [2], the IC50 was found to be 0.005 µM. For the same compound, in assay [4], the “Conc (nM) of 50% TGF-β3 activity” value turned out to be 100 nM, the “Max. Activity as % TGF-β3 activity” value is 185% and the “Conc (nM) of Max. activity” value is listed as 100 nM. In assay [3], this compound had a pEC50 of 7.44.
In the case of `CN1CCCn2cc(nn2)-c2cncc3[nH]c(nc23)-c2n[nH]c3ccc(cc23)-c2cncc(c2)C1` [Compound 45, (1^4Z,2^1Z)-6-Methyl-1 ^1H,2^3H,3^1H-6-aza-2(7,2)-imidazo[4,5-c]pyridina-3(3,5)-indazola-4(3,5)-pyridina-1(4,1)-triazolacyclononaphane], the negative-log EC50 (pEC50) is 6.47 in assay [1] and 7.66 in assay [3]. Further, in assay [2], the IC50 was determined as 0.004 µM.
As to `O=C1CCc2cccc(c2)-c2cncc3[nH]c(nc23)-c2n[nH]c3ccc(cc23)-c2cncc(c2)N1` [Compound 3, (Z)-2^3H,3^1H-5-Aza-2(7,2)-imidazo[4,5-c]pyridina-3 (3,5)-indazola-4(3,5)-pyridina-1(1,3)-benzenacyclooctaphan-6-one], the pEC50 in assay [1] is 7.28. In addition, the half-inhibitory concentration (IC50) in assay [2] was found to be 0.01 µM. In assay [4], the “Conc (nM) of 50% TGF-β3 activity” value was determined as 50 nM, the “Max. Activity as % TGF-β3 activity” value is listed as 225% and the “Conc (nM) of Max. activity” value is reported as 100 nM. The same compound had a negative logarithm of the EC50 (pEC50) in assay [3] of 7.55.
On to `O=C1NC2CCC(CC2)NCc2cncc(c2)-c2ccc3[nH]nc(c3c2)-c2nc3c1cccc3[nH]2` [Compound 64, (6^1s,6^4s,Z)-1^1H,2^1H-5,7-diaza-1 (2,4),2(3,5)-dibenzo[d]imidazola-3(3,5)-pyridina-6(1,4)-cyclohexanacyclooctaphan-8-one], for which the inhibition at 10 µM in assay [1] (SW480, read-out: percent inhibition at 10 μM) came to 47.4%. Further, the pEC50 is less than 5.00 in assay [1] and 6.83 in assay [3]. Also, the 50% inhibitory concentration (IC50) in assay [2] was determined as 0.448 µM.
In assay [1], `c1cc2cc(c1)-c1cncc3[nH]c(nc13)-c1n[nH]c3ccc(cc13)-c1cncc(c1)CNC2` [Compound 8, (Z)-2^3H,3H-6-Aza-2(7,2)-imidazo[4,5-c]pyridina-3(3,5)-indazola-4(3,5)-pyridina-1(1,3)-benzenacycloheptaphane] had a pEC50 of 7.38. Besides, in assay [2], the IC50 amounted to 0.003 µM. Further, in assay [4], the “Conc (nM) of 50% TGF-β3 activity” value is on record as 200 nM, the “Max. Activity as % TGF-β3 activity” value was found to be 558% and the “Conc (nM) of Max. activity” value is given as 1700 nM. The compound also gave a negative logarithm of the EC50 (pEC50) in assay [3] of 6.69.
